We go through 24 compounds from patent US7666868B2, “N-sulphonylpyrroles and their use as histone deacetylase inhibitors” (4SC AG, priority 2005, dated 2010).

As usually defined, the EC50 is the concentration giving half of the maximal effect.

The first assay concerns histone H3 acetylation (lysine 9+14) in HeLa cervical carcinoma cells. Nature of the assay: Cellular histone H3 acetylation assay. The assay is classed as cell-based. The settings on record: Homo sapiens, 24 h incubation with compound, read-out: EC50 (histone H3 acetylating cellular potency). From the text: To assess the cellular efficacy of an histone deactylase inhibitor in vitro, an assay is set up in black clear-bottom 96-well plates and optimized for use on the Cellomics “ArrayScan II” platform for a quantitative calculation of histone acetylation. The protocol uses a polyclonal rabbit antibody, specifically binding to acetylated lysine 9+14 of human histone H3 on fixed cells with an Alexa Fluor 488 labeled goat ant rabbit-IgG used for counterstaining (modified from Braunger et al. MCR annual conference 2003, Abstract 4556).
5×10^3 HeLa cervical carcinoma cells/well (ATCC CCL-2) in 200 μl Dulbecco's modified Eagle's medium (DMEM) containing 10% fetal calf serum are seeded at day 1 in Packard view plates and incubated for 24 h under standard cell culture conditions. On day 2, 2 μl test compound (100× final concentration) is added and incubation continued for further 24 h. On day 3, the culture medium is discarded and attached cells fixed for 15 min at room temperature by addition of 100 μl fixation buffer (3.7% v:v formaldehyde in phosphate buffered saline/PBS). After discarding the fixation buffer and one wash with PBS, cells are permeabilized at room temperature by addition of 100 μl/well permeabilization buffer (30.8 mM NaCl, 0.54 mM Na2HPO4, 0.31 mM KH2PO4, 5% v:v Triton X-100) for 15 min at room temperature. After discarding the permeabilization buffer and washing twice with 100 μl/well blocking solution (PBS with 0.05% v:v Tween 20 and 5% w:v milk powder) at room temperature, the 1st antibody (anti-K9+14 histone H3 antibody, Calbiochem No. 382158) in blocking solution (50 μl/well) is added. After incubation for 1 h at 37° C., the wells are washed twice at room temperature with 100 μl/well blocking solution before addition of the 2nd antibody (goat-anti-rabbit Alexa Fluor 488; MoBiTec No. A-11008) in blocking solution (50 μl/well). After further incubation for 1 h at 37° C., wells are washed twice with 100 μl/well blocking solution room temperature. Finally, 100 d/well PBS are added and image analysis performed on the Cellomics “ArrayScan II” platform. For calculation of EC50 values, the nuclear fluorescence in cells treated with and without a reference HDAC inhibitor (eg NVP-LBH-589) are taken as a positive and negative control. For EC50 determination, the percentage of positive cells is determined and EC50 calculation done from concentration-effect curves by means of non-linear regression.
Consider `CN(C)CCNC(=O)c1cccc(-c2ccc(S(=O)(=O)n3ccc(C=CC(=O)NO)c3)cc2)c1` [Compound 25, 4′-[3-(E)-2-Hydroxycarbamoyl-vinyl)-pyrrole-1-sulfonyl]-biphenyl-3-carboxylic acid (2-dimethylamino-ethyl)-amide], for which the 50% effective concentration (EC50) lay within 27 to 4400 nM.
`CN(C)Cc1ccccc1-c1ccc(S(=O)(=O)n2ccc(/C=C/C(=O)NO)c2)cc1` [Compound 27, (E)-3-[1-(2′-Dimethylaminomethyl-biphenyl-4-sulfonyl)-1H-pyrrol-3-yl]-N-hydroxy-acrylamide]: the 50% effective concentration (EC50) lay within 27 to 4400 nM.
As for `Nc1ccc(-c2cccc(S(=O)(=O)n3ccc(/C=C/C(=O)Nc4ccccc4N)c3)c2)cn1` [Compound 17, (E)-N-(2-Amino-phenyl)-3-{1-[3-(6-amino-pyridin-3-yl)-benzenesulfonyl]-1H-pyrrol-3-yl}-acrylamide], the EC50 is 27 to 4400 nM.
Same read-out and setting: for `Nc1ccc(-c2cccc(S(=O)(=O)n3ccc(/C=C/C(=O)NO)c3)c2)cn1` [Compound 10, (E)-3-{1-[3-(6-Amino-pyridin-3-yl)-benzenesulfonyl]-1H-pyrrol-3-yl}-N-hydroxy-acrylamide] the value was 27 to 4400 nM; for `O=C(/C=C/c1ccn(S(=O)(=O)c2cccc(-c3cccc(CCN4CCOCC4)c3)c2)c1)NO` [Compound 20, (E)-N-Hydroxy-3-{1-[3′-(2-morpholin-4-yl-ethyl)-biphenyl-3-sulfonyl]-1H-pyrrol-3-yl}-acrylamide], 27 to 4400 nM.
For `CS(=O)(=O)Nc1ccccc1-c1ccc(S(=O)(=O)n2ccc(/C=C/C(=O)NO)c2)cc1` [Compound 21, (E)-N-Hydroxy-3-[1-(2′-methanesulfonylamino-biphenyl-4-sulfonyl)-1H-pyrrol-3-yl]-acrylamide], the EC50 lay within 27 to 4400 nM.
On the same count and under the same terms, with `O=C(/C=C/c1ccn(S(=O)(=O)c2ccc(-c3cccc(CCN4CCOCC4)c3)cc2)c1)NO` [Compound 9, (E)-N-Hydroxy-3-{1-[3′-(2-morpholin-4-yl-ethyl)-biphenyl-4-sulfonyl]-1H-pyrrol-3-yl}-acrylamide] the figure was 27 to 4400 nM.
As for `O=C(/C=C/c1ccn(S(=O)(=O)c2cccc(-c3ccc(OCCN4CCOCC4)cc3)c2)c1)NO` [Compound 34, (E)-N-Hydroxy-3-{1-[4′-(2-morpholin-4-yl-ethoxy)-biphenyl-3-sulfonyl]-1H-pyrrol-3-yl}-acrylamide], the EC50 is 27 to 4400 nM.
For the compound `CN(C)Cc1ccc(-c2ccc(S(=O)(=O)n3ccc(/C=C/C(=O)NO)c3)s2)cc1` [Compound 46, (E)-3-{1-[5-(4-Dimethylaminomethyl-phenyl)-thiophene-2-sulfonyl]-1H-pyrrol-3-yl}-N-hydroxy-acrylamide], the EC50 lay within 27 to 4400 nM.
For the compound `O=C(/C=C/c1ccn(S(=O)(=O)c2cccc(-c3ccc(OCCN4CCCC4)cc3)c2)c1)NO` [Compound 43, (E)-N-Hydroxy-3-{1-[4′-(2-pyrrolidin-1-yl-ethoxy)-biphenyl-3-sulfonyl]-1H-pyrrol-3-yl}-acrylamide], the EC50 was in the range of 27 to 4400 nM.
On to `Nc1ccccc1NC(=O)/C=C/c1ccn(S(=O)(=O)c2cccc(-c3cccc(CCN4CCOCC4)c3)c2)c1` [Compound 18, (E)-N-(2-Amino-phenyl)-3-{1-[3′-(2-morpholin-4-yl-ethyl)-biphenyl-3-sulfonyl]-1H-pyrrol-3-yl}-acrylamide], for which the concentration for a half-maximal effect (EC50) was 27 to 4400 nM.
Take `CN(C)CCNC(=O)c1ccc(-c2cccc(S(=O)(=O)n3ccc(C=CC(=O)NO)c3)c2)cc1` [Compound 30, 3′-3-((E)-2-Hydroxycarbamoyl-vinyl)-pyrrole-1 sulfonyl]-biphenyl-4-carboxylic acid (2-dimethylamino-ethyl)-amide]: the EC50 was 27 to 4400 nM.
`CN1CCN(c2cc(-c3ccc(S(=O)(=O)n4ccc(/C=C/C(=O)NO)c4)s3)ccn2)CC1` [Compound 42, (E)-N-Hydroxy-3-(1-{5-[2-(4-methyl-piperazin-1-yl)-pyridin-4-yl]-thiophene-2-sulfonyl}-1H-pyrrol-3-yl)-acrylamide]: the EC50 lay in the range of 27 to 4400 nM.
Regarding `CN1CCN(Cc2ccc(-c3cccc(S(=O)(=O)n4ccc(/C=C/C(=O)NO)c4)c3)cc2)CC1` [Compound 62, (E)-N-Hydroxy-3-{1-[4′-(4-methyl-piperazin-1-ylmethyl)-biphenyl-3-sulfonyl]-1H-pyrrol-3-yl}-acrylamide], the EC50 fell in the range of 27 to 4400 nM.
Regarding `CS(=O)(=O)Nc1cccc(-c2ccc(S(=O)(=O)n3ccc(/C=C/C(=O)NO)c3)cc2)c1` [Compound 22, (E)-N-hydroxy-3-[1-(3′-methanesulfonylamino-biphenyl-4-sulfonyl)-1H-pyrrol-3-yl]-acrylamide], the EC50 is 27 to 4400 nM.
For the compound `O=C(/C=C/c1ccn(S(=O)(=O)c2cccc(-c3cccc(CN4CCOCC4)c3)c2)c1)NO` [Compound 31, (E)-N-Hydroxy-3-[1-(3′-morpholin-4-ylmethyl-biphenyl-3-sulfonyl)-1H-pyrrol-3-yl]-acrylamide], the EC50 is 27 to 4400 nM.
On to `CN1CCN(c2cc(-c3ccc(S(=O)(=O)n4ccc(/C=C/C(=O)NO)c4)cc3)ccn2)CC1` [Compound 28, (E)-N-Hydroxy-3-(1-{4-[2-(4-methyl-piperazin-1-yl)-pyridin-4-yl]-benzenesulfonyl}-1H-pyrrol-3-yl)-acrylamide], for which the EC50 was in the range of 27 to 4400 nM.

In the next assay the test system is HeLa cervical carcinoma cell line. Nature of the assay: Cellular cytotoxicity assay (Alamar Blue / Resazurin). The assay is classed as cell-based. The note with it: Homo sapiens; HeLa cells, 48 hours incubation; read-out: IC50 (anti-proliferative/cytotoxic potency). On the procedure: The anti-proliferative activity of the histone deacetylase inhibitory compounds as described herein, is evaluated with the HeLa cervical carcinoma cell line (ATCC CCL2) using the Alamar Blue (Resazurin) cell viability assay (O'Brien et al. Eur J Biochem 267, 5421-5426, 2000). Resazurin is reduced to the fluorescent resorufin by cellular dehydrogenase activity, correlating with viable, proliferating cells. Test compounds are dissolved as 10 mM solutions in dimethylsulfoxide (DMSO) and subsequently diluted in semi-logarithmic steps. HeLa cells are seeded into 96 well flat bottom plates at a density of 3000 cells per well in a volume of 200 μl per well. 24 hours after seeding 1 μl each of the compound dilutions are added into each well of the 96 Well plate. Each compound dilution is tested as quadruplicates. Wells containing untreated control cells are filled with 200 μl DMEM medium containing 0.5% v:v DMSO. The cells are then incubated with the substances for 48 hours at 37° C. in a humidified atmosphere containing 5% carbon dioxide. To determine the viability of the cells, 20 μl of an Resazurin solution (Sigma; 90 mg/l) are added. After 4 hours incubation at 37° C. the fluorescence is measured at an extinction of 544 nm and an emission of 590 nm. For the calculation of the cell viability the emission value from untreated cells is set as 100% viability and the emission rates of treated cells are set in relation to the values of untreated cells. Viabilites are expressed as % values. The corresponding IC50 values of the compounds for cytotoxic activity are determined from the concentration-effect curves by means of non-linear regression.
`CN1CCN(CCCOc2cccc(-c3ccc(S(=O)(=O)n4ccc(/C=C/C(=O)NO)c4)cc3)c2)CC1` [Compound 73, (E)-N-Hydroxy-3-(1-{3′-[3-(4-methyl-piperazin-1-yl)-propoxy]-biphenyl-4-sulfonyl}-1H-pyrrol-3-yl)-acrylamide]: the IC50 lay in the range of 14 to 6700 nM.
Consider `O=C(/C=C/c1ccn(S(=O)(=O)c2ccc(-c3ccc4c(c3)CCO4)cc2)c1)NO` [Compound 70, (E)-3-{1-[4-(2,3-Dihydro-benzofuran-5-yl)-benzenesulfonyl]-1H-pyrrol-3-yl}-N-hydroxy-acrylamide], for which the IC50 lay in the range of 14 to 6700 nM.
Regarding `NCc1cccc(-c2ccc(S(=O)(=O)n3ccc(/C=C/C(=O)NO)c3)s2)c1` [Compound 94, (E)-3-{1-[5-(3-Aminomethyl-phenyl)-thiophene-2-sulfonyl]-1H-pyrrol-3-yl}-N-hydroxy-acrylamide], the IC50 is 14 to 6700 nM.
For `O=C(/C=C/c1ccn(S(=O)(=O)c2ccc(-c3ccc(N4CCOCC4)cc3)cc2)c1)NO` [Compound 71, (E)-N-Hydroxy-3-[1-(4′-morpholin-4-yl-biphenyl-4-sulfonyl)-1H-pyrrol-3-yl]-acrylamide], the IC50 was 14 to 6700 nM.
`CS(=O)(=O)Nc1ccc(-c2cccc(S(=O)(=O)n3ccc(/C=C/C(=O)Nc4ccccc4N)c3)c2)cc1` [Compound 101, (E)-N-(2-Amino-phenyl)-3-[1-(4′-methanesulfonylamino-biphenyl-3-sulfonyl)-1H-pyrrol-3-yl]-acrylamide]: the IC50 fell in the range of 14 to 6700 nM.
On to `O=C(/C=C/c1ccn(S(=O)(=O)c2ccc(-c3cccc(OCCCN4CCCC4)c3)cc2)c1)NO` [Compound 72, (E)-N-Hydroxy-3-{1-[3′-(3-pyrrolidin-1-yl-propoxy)-biphenyl-4-sulfonyl]-1H-pyrrol-3-yl}-acrylamide], for which the IC50 was in the range of 14 to 6700 nM.
`O=C(/C=C/c1ccn(S(=O)(=O)c2ccc(-c3ccc(CNC4CCCC4)cc3)cc2)c1)NO` [Compound 84, (E)-3-[1-(4′-Cyclopentylaminomethyl-biphenyl-4-sulfonyl)-1H-pyrrol-3-yl]-N-hydroxy-acrylamide]: the IC50 is 14 to 6700 nM.
